Data from patent US11337424B2, “Fungicidal compounds and mixtures for fungal control in cereals” (Corteva Agriscience LLC, priority 2016, dated 2022).

Key:
Type in all cases: in vivo
[1] = test system: Puccinia recondita (PUCCRT); test: Field assessment of brown rust of wheat (PUCCRT), 2 field trials, relative AUDPC; settings: % control based on AUDPC, average of 2 trials
Description: (§1) Treatments consisted of the compound of Formula I and fenpicoxamid either using individually or as a two-way mixture with the compound of Formula I. The compound of Formula I was applied with Agnique BP-420 (50% w/w at 0.3% v/v) at 75 and 150 g ai/ha and fenpicoxamid was applied with Agnique BP-420 (50% w/w at 0.3% v/v) at 75 and 100 g ai/ha. Commercial standards used in the studies were Fluxapyroxad (Imtrex), applied at 100 g ai/ha, and Metconazole+Fluxapyroxad (Librax), applied at 161 g ai/ha.
Field Assessment of Puccinia recondita (PUCCRT) in Wheat:
Fungicidal treatment containing the compound of Formula I and fenpicoxamid, either individually or as a two mixture, were assessed against brown rust of wheat (PUCCRT) in two separate field trials. In the first trial, fungicidal treatments were applied at B37-39 (protectant, approximately 0% infection at application) growth stage of wheat (TRZAW, MV Vanek variety) under natural infection of brown rust. The treatment was part of an experimental trial designed as a randomized complete block with four replications and a plot of approximately 2×3 m. Fungicidal treatments were applied at a water volume of 200 L/ha, using a backpack plot sprayer with a TEEJET QJ90-2XTT110 015 Nozzle.
In the second trial, fungicidal treatments containing the compound of Formula I and fenpicoxamid, either individually or as a two way mixture, were applied at B33 (curative, approximately 6.6% infection at application) growth stage of wheat (TRZAW, Miradoux variety) under natural infection of brown rust. The treatments were part of an experimental trial designed as a randomized complete block with four replications and a plot of approximately 2×3 m. Fungicidal treatments were applied at a water volume of 200 L/ha, using a backpack plot sprayer with a HARDI MD110-02 Nozzle.
(§2) Disease severity (percentage of visual diseased foliage on whole plot or leaves) in both field trials was assessed at 5 weeks after application and was recorded following EPPO PP1/26 guideline prescriptions. Area under the disease progress curve (AUDPC) was calculated for each plot in both trials using the sets of recorded severity data. Relative AUDPC (% control based on AUDPC) was calculated as percent of the nontreated control. Final results for the control of brown rust of wheat by the compound of Formula I, fenpicoxamid, and mixtures are reported as an average of the relative AUDPC calculated over both field trials. Statistical analysis was done according to ANOVA and Tukey's test (p=0.10).

[2] = test system: Puccinia striiformis (PUCCST); test: Field assessment of yellow rust of wheat (PUCCST), 2 field trials, relative AUDPC; settings: % control based on AUDPC, average of 2 trials
Description: as §1
Field Assessment of Puccinia striiformis (PUCCST) in Wheat:
Fungicidal treatments containing the compound of Formula I and fenpicoxamid, either individually or as a two way mixture, were assessed against yellow rust of wheat (PUCCST) in two separate field trials. In the first trial, fungicidal treatments were applied twice at B31-32 (early curative, 4% infection at application on L3) and B39 (16.3% infection at application on L3) growth stages of winter wheat (TRZAW, Fairplay variety) under naturally occurring infection with PUCCST. The treatments were part of an experimental trial designed as a randomized complete block with four replications and a plot of approximately 1×6 m. Treatments were applied at water volume of 200 L/ha, using a backpack plot sprayer (BKPCKENG, F110-015 Hardi (3) Flat fan nozzle) and pressurized at 200 kPa.
In the second trial, fungicidal treatments containing the compound of Formula I and fenpicoxamid, either individually or as a two way mixture, were applied twice at B32 (protectant, 0% infection on L3 at application) and B37 (early curative, 20% infection on L3 at application) growth stages of wheat (TRZAW, Torch variety) under naturally occurring infection with PUCCST. The treatment was part of an experimental trial designed as a randomized complete block with four replications and a plot of approximately 2×4 m. Treatments were applied at water volume of 200 L/ha, using a backpack precision plot sprayer (BKCKAIR, F110-03 Hypro (4) Flat fan nozzle) and pressurized at 210 kPa.
as §2, with “4-7” for “5”, “yellow” for “brown”

[3] = test system: Zymoseptoria tritici (SEPTTR); test: Field assessment of leaf blotch of wheat (SEPTTR), 3 field trials, relative AUDPC; settings: % control based on AUDPC, average of 3 trials
Description: as §1
Field Assessment of Zymoseptoria Tritici (SEPTTR) in Wheat:
Fungicidal treatments containing the compound of Formula I and fenpicoxamid, either individually or as a two way mixture, were assessed against leaf spot of wheat (SEPTTR) in three separate field trials. In the first trial, fungicidal treatments were applied at B37 (curative, 1.8% infection at application on L4) growth stage of winter wheat (TRZAW, Sy moisson variety) under naturally occurring infection with SEPTTR. The treatments were part of an experimental trial designed as a randomized complete block with four replications and a plot of approximately 2×4 m. Treatments were applied at water volume of 200 L/ha, using a backpack plot sprayer (BKPCKAIR, FLAT FAN nozzle) and pressurized at 250 kPa.
In the second trial, fungicidal treatments were applied twice at B32 (curative, 15% infection at application on L5) and B39 (16% infection at application on L4) growth stages of winter wheat (TRZAW, Riband variety) under naturally occurring infection with SEPTTR. The treatments were part of an experimental trial designed as a randomized complete block with four replications and a plot of approximately 1.5×2 m. Treatments were applied at water volume of 200 L/ha, using a backpack plot sprayer (BKPCKAIR, Flat fan nozzle) and pressurized at 180 kPa.
In the final trial, fungicidal treatments were applied twice at B32 (protective, 15% infection at application on L6) and B37 (12% infection at application on L5) growth stages of winter wheat (TRZAW, Smaragd variety) under naturally occurring infection with SEPTTR. […]
as §2, with “at 7-9” for “at 5”, “of leaf spot” for “of brown rust”, “over all three” for “over both”, “trials. […]” for “trials. Statistical analysis was done according to ANOVA and Tukey's test (p=0.10).”

SMILES	PUCCRT % Control ([1]; 75 g ai/ha) [%]	PUCCRT % Control ([1]; 100 g ai/ha) [%]	PUCCST % Control ([2]; 75 g ai/ha) [%]	PUCCST % Control ([2]; 100 g ai/ha) [%]	SEPTTR % Control ([3]; 50 g ai/ha) [%]	SEPTTR % Control ([3]; 75 g ai/ha) [%]	PUCCRT % Control ([1]; 150 g ai/ha) [%]	PUCCST % Control ([2]; 150 g ai/ha) [%]	SEPTTR % Control ([3]; 150 g ai/ha) [%]
COc1ccnc(C(=O)N[C@H]2COC(=O)[C@H](Cc3ccccc3)[C@@H](OC(=O)C(C)C)[C@H](C)OC2=O)c1OCOC(=O)C(C)C [Fenpicoxamid, (3S,6S,7R,8R)-8-benzyl-3-(3-((isobutyryloxy)methoxy)-4-methoxypicolinamido)-6-methyl-4,9-dioxo-1,5-dioxonan-7-yl isobutyrate]	63.5	74.5	56.5	60.5	48.7	57.7			
N#Cc1ccc(Oc2ccc(C(F)(F)C(O)(Cn3nc[nH]c3=S)c3ccc(F)cc3F)nc2)cc1 (stereo not drawn) [Compound I, 4-((6-(2-(2,4-difluorophenyl)-1,1-difluoro-2-hydroxy-3-(5-thioxo-4,5-dihydro-1H-1,2,4-triazol-1-yl)propyl)pyridin-3-yl)oxy)benzonitrile]	79.7		82.7			48.2	89.0	85.5	65.8
